{"source": "patent US7674899B2", "about": "“Dimeric azacyclic compounds and their use” (Neurosearch A/S, priority 2004, dated 2010)", "molecular_target": "T1, α7-subtype of nicotinic receptors (Rattus norvegicus, UniProt Q05941)", "T1 construct": "Cerebral cortices from male Wistar rats (150-250 g) are homogenised; from tissue; host or cells: rat cerebral cortex membrane homogenate", "T1 sequence (Q05941 23-502)": "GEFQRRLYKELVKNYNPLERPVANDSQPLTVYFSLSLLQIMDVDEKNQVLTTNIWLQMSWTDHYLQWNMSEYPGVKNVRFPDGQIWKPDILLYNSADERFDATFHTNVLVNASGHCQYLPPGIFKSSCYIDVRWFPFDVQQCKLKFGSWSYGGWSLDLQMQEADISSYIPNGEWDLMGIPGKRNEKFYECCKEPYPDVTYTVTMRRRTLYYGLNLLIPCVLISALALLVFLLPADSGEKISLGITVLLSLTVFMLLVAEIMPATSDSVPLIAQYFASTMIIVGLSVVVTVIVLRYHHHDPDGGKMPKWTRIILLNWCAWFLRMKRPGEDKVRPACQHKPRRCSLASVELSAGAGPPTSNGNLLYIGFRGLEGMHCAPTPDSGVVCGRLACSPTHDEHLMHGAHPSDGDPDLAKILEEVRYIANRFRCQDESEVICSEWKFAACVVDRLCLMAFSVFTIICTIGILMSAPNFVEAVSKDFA", "assay": "In vitro inhibition of 3H-α-bungarotoxine binding in rat brain", "details": "rat cerebral cortex homogenate; 2 nM 3H-α-bungarotoxine; 2 hours at 37° C.", "note": "Counter-ions that a name gives are not always drawn.", "data": [{"smiles": "c1nc(OC2CN3CCC2CC3)sc1-c1cnc(OC2CN3CCC2CC3)s1", "note": "(racemic) [Compound A1, 2,2′-Bis-((±)-1-aza-bicyclo[2.2.2]oct-3-yloxy)-[5,5′]-bithiazolyl fumaric acid salt]", "values": [{"measurement": "IC50", "result": 200, "unit": "nM"}]}]}
